Entries after “also recorded” stand apart in the source; their conditions may differ. Read-outs that look alike come from different tables or passages of the source.

Assay [1] deals with WI-38 cells. Description: MMS resistance assay. The settings on record: for fold induction at 10 µM: Homo sapiens, 12 h, normalized ATP measurement. In kind it is cell-based, human. The procedure, abridged:
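WI-38 cells were given compounds at five final concentrations (0.25–20 μM) in triplicate, followed by cadmium or MMS for 12 h. For MMS, medium was switched from OptiMEM+10% FBS to serum-free DMEM+2% BSA when compounds were added, 24 h before stressor. Two independent assays were run, analysed by global variance t-test.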

The test system of assay [2] is FOXO3. Description: qPCR analysis of FOXO3-regulated genes. The class given is cell-based, human. The conditions noted are these: for fold induction at 10 µM: Homo sapiens; for K = Sestrin induction: score. The procedure, abridged: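 WI-38 cells treated with compound at 10 μM for 24 h, followed by Cells-to-Ct RT-qPCR of FOXO3 target genes normalised to B2M, PPIA and GAPDH. FOXO3 or NRF2 dependence tested by prior 10 nM siRNA knockdown (36 h transfection, compound added ~24 h after replating).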
(In qPCR the cycle at which signal appears reflects the starting amount.)

Assay [3] relates to C. elegans. The class given is in vivo, Caenorhabditis elegans. The conditions noted are these: in vivo. A digest of the protocol: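 Worms treated in liquid with compounds in 96-well plates (4 wells each, FUdR to block progeny, 0.2% DMSO controls); H2O2 at 500 μM final added on day 4 of adulthood and viability scored daily.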
[4] abbreviates: Exp. 1, WI-38 cells, read-out: Exp. 1, under MMS stress treatment, at 10 uM (fold change).
Setting [5] is: Exp. 2, WI-38 cells, read-out: Exp. 2, under MMS stress treatment, at 10 uM (fold change).
[6] abbreviates: score in summary of 38 core set hits.
The mark [7] stands for this setting: WI-38 cells, 10 μM, 24 hrs, n=4, qPCR normalized by B2M, read-out: DDB1 Normalized fold change.
The mark [8] stands for this setting: WI-38 cells, 10 μM, 24 hrs, n=4, qPCR normalized by B2M, read-out: GADD45A Normalized fold change.
Setting [9] is: WI-38 cells, 10 μM, 24 hrs, n=4, qPCR normalized by B2M, read-out: SESN1 Normalized fold change.
The mark [10] stands for this setting: qPCR, WI-38 cells, 10 μM, n=4, 24 hrs, normalized by B2M, read-out: CAT Normalized fold change.
Setting [11] is: qPCR, WI-38 cells, 10 μM, n=4, 24 hrs, normalized by B2M, read-out: SOD2 Normalized fold change.
The mark [12] stands for this setting: qPCR, WI-38 cells, 10 μM, n=4, 24 hrs, normalized by B2M, read-out: TXNIP Normalized fold change.

With `O=C(/C(=C/c1ccc(Cl)cc1)c1nc2ccccc2[nH]1)c1ccccc1` [Gr-4D], the fold induction at 10 µM in assay [1] (setting [4]) was found to be 1.72; in assay [1] (setting [5]) it was 1.33; in assay [2] (24 h, Assay 10(m), at 10 uM, qPCR, read-out: Induction of FOXO3-regulated genes: CAT normalized fold-change), 1.37; in assay [2] (24 h, Assay 10(m), at 10 uM, qPCR, read-out: Induction of FOXO3-regulated genes: DDB1 normalized fold-change), 1.41; in assay [2] (24 h, Assay 10(m), at 10 uM, qPCR, read-out: Induction of FOXO3-regulated genes: GADD45A normalized fold-change), 2.11; in assay [2] (24 h, Assay 10(m), at 10 uM, qPCR, read-out: Induction of FOXO3-regulated genes: SESN1 normalized fold-change), 2.16. Besides, the fold induction at 10 µM in assay [2] (24 h, Assay 10(m), at 10 uM, qPCR, read-out: Induction of FOXO3-regulated genes: SOD2 normalized fold-change) is 1.2; in assay [2] (WI-38, 24 h, read-out: SESN1 expression), above 1.5; in assay [2] (10 μM, 24 hrs, WI-38 cells, qPCR, normalized to B2M, n = 4, read-out: CAT expression, normalized fold change (FOXO3-regulated gene)) it was 1.37; in assay [2] (10 μM, 24 hrs, WI-38 cells, qPCR, normalized to B2M, n = 4, read-out: DDB1 expression, normalized fold change (FOXO3-regulated gene)) it was 1.41; in assay [2] (10 μM, 24 hrs, WI-38 cells, qPCR, normalized to B2M, n = 4, read-out: GADD45A expression, normalized fold change (FOXO3-regulated gene)), 2.11; in assay [2] (10 μM, 24 hrs, WI-38 cells, qPCR, normalized to B2M, n = 4, read-out: SESN1 expression, normalized fold change (FOXO3-regulated gene)), 2.16. Further, the fold induction at 10 µM in assay [2] (setting [7]) came out at 1.41; in assay [2] (setting [8]), 2.11; in assay [2] (setting [9]), 2.16; in assay [2] (fold change, qPCR, WI-38 cells, 10 μM, 24 hrs, read-out: Summary of effects on FOXO3-regulated genes: CAT), 1.37; in assay [2] (fold change, qPCR, WI-38 cells, 10 μM, 24 hrs, read-out: Summary of effects on FOXO3-regulated genes: DDB1), 1.41; in assay [2] (fold change, qPCR, WI-38 cells, 10 μM, 24 hrs, read-out: Summary of effects on FOXO3-regulated genes: GADD45A), 2.11. Moreover, the fold induction at 10 µM in assay [2] (fold change, qPCR, WI-38 cells, 10 μM, 24 hrs, read-out: Summary of effects on FOXO3-regulated genes: SESN1) was determined as 2.16; in assay [2] (setting [10]), 1.37; in assay [2] (setting [11]), 1.2; in assay [2] (setting [12]) it was 1.09. The “Assay 3: MMS-resistant” value in assay [1] (YES/NO, * indicates partial) was “YES”. The “Assay 5: Triple resistant” value in assay [1] (YES/NO, H2O2, cadmium and MMS) was “YES”. The “B = MMS resistant” value was found to be 0 in assay [1] (setting [6]) and 1 in assay [1] (summary score). Also, in assay [1] (summary score), the “D = Triple resistant” value is on record as 2. The “Induction of at least two of five FOXO3-regulated genes (SOD2, GADD45A, CAT, DDB1, TXNIP)” value in assay [2] (10 μM, 24 hrs, WI-38) is “could induce both FOXO3- and NRF2-regulated genes; also recorded: significant induction; also recorded: significant, induction”. For the same molecule, the “SOD2 expression, normalized fold change (FOXO3-regulated gene)” value in assay [2] (10 μM, 24 hrs, WI-38 cells, qPCR, normalized to B2M, n = 4) is listed as “SOD2 1.20, fold”. Further, the “E = Potential FOXO3 Activation” value in assay [2] (2-point score) and in assay [2] (summary score) was 0 each time. In assay [2] (fold change, qPCR, WI-38 cells, 10 μM, 24 hrs), the “Summary of effects on FOXO3-regulated genes: SOD2” value was “SOD2 1.20,”. For the same molecule, in assay [2], the “K = Sestrin induction” value came to 1. In assay [3], the “H2O2-resistance assay, 1st experiment” value was “YES;”. The “L = H2O2-resistance in worms” value in assay [3] stood at 0. In assay [3], the “N = H2O2-resistance in woms” value is reported as 0.

For `CCc1ccc(Oc2nc3ccccn3c(=O)c2/C=C(\C#N)C(=O)NC2CCCCC2)cc1` [Gr-5A], the fold induction at 10 µM came out at 0.83 in assay [1] (setting [4]); 1.49 in assay [1] (setting [5]); 1.2 in assay [2] (setting [7]); 0.841 in assay [2] (setting [8]); 1.38 in assay [2] (setting [9]); 1.17 in assay [2] (setting [10]). For the same molecule, the results for the fold induction at 10 µM in assay [2] (setting [11]) and in assay [2] (setting [12]) were 1.12 and 1.14, respectively. Further, the “B = MMS resistant” value in assay [1] (setting [6]) and in assay [1] (summary score) was 0 each time. The “D = Triple resistant” value in assay [1] (summary score) was determined as 0. The “E = Potential FOXO3 Activation” value in assay [2] (2-point score) and in assay [2] (summary score) was 0 in each case. In addition, in assay [2], the “K = Sestrin induction” value is listed as 0. Also, the “H2O2-resistance assay, 1st experiment” value in assay [3] is “YES;”. Also, in assay [3], the “L = H2O2-resistance in worms” value is on record as 0. Also, the “N = H2O2-resistance in woms” value in assay [3] came out at 0.

For the molecule `CCc1ccc(Oc2nc3ccccn3c(=O)c2/C=C(\C#N)C(=O)NCc2ccco2)cc1` [Gr-5B], the fold induction at 10 µM in assay [1] (setting [4]) stood at 1.13; in assay [1] (setting [5]), 1.36; in assay [2] (setting [7]), 1.25; in assay [2] (setting [8]), 0.808; in assay [2] (setting [9]) it was 1.36; in assay [2] (setting [10]) it was 1.42. The fold induction at 10 µM in assay [2] (setting [11]) amounted to 1.13; in assay [2] (setting [12]), 1.2. Further, the “B = MMS resistant” value in assay [1] (setting [6]) and in assay [1] (summary score) was 0 throughout. Further, in assay [1] (summary score), the “D = Triple resistant” value is on record as 0. The “E = Potential FOXO3 Activation” value in assay [2] (2-point score) and in assay [2] (summary score) was 0 in each case. Besides, the “K = Sestrin induction” value in assay [2] was 0. Moreover, the “L = H2O2-resistance in worms” value in assay [3] amounted to 0. Moreover, the “N = H2O2-resistance in woms” value in assay [3] is reported as 0.

The values above are taken from patent publication US11413278B2, “Compounds and methods for promoting stress resistance” (priority 2015, dated 2022).
